Results as given in patent US10131679B2, “Substituted dihydropyrrolopyrazole compound” (UBE INDUSTRIES, LTD., priority 2014, dated 2018).

How the values were obtained:
CDK7 = target: T1, CDK7 (Homo sapiens, UniProt P50613); experiment: CDK7 enzyme inhibition test; assay type: biochemical; details: Ki=IC50/(1+S/Km); 33P bound to MBP, [γ-33P]ATP, 30° C. for 20 minutes; read-out: Ki value of CDK7 inhibitory activity
T1 construct: purchased Carna Biosciences, Inc. 04-108
Procedure, shortened: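 Recombinant CDK7 with MBP substrate and [γ-33P]ATP (500 μM solution, diluted into the mix) in HEPES pH 7.4/DTT/Triton X-100/MgCl2, 20 min at 30 °C. TCA-precipitated 33P-MBP counted by scintillation; IC50 from inhibition, Ki = IC50/(1+S/Km).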

[1] = test system: human large intestine cancer cell line (HCT-116); experiment: Human large intestine cancer (HCT-116) cell growth inhibition test; assay type: cell-based; details: 72 h, HCT-116, culture for 3 days, sulforhodamine B absorbance
Procedure, shortened: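 HCT-116 cells seeded at 1.0×10^3 cells/well in McCoy's 5a with 10% FBS, then exposed to compound (0.1% DMSO final) for 3 days. Growth measured by sulforhodamine B absorbance; IC50 derived from concentration-inhibition data.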

T1 sequence (P50613 whole entry): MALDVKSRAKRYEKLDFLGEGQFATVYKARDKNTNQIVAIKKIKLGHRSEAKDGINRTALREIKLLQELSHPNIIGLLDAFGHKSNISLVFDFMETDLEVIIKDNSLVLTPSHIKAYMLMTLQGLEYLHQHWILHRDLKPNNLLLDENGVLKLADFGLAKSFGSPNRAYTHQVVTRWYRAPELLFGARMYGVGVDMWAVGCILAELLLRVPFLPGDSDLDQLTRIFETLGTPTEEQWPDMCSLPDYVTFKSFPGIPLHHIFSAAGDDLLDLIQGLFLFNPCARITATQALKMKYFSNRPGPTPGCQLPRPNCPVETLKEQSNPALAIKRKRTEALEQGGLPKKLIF
T1 sequence (P51946 whole entry partner): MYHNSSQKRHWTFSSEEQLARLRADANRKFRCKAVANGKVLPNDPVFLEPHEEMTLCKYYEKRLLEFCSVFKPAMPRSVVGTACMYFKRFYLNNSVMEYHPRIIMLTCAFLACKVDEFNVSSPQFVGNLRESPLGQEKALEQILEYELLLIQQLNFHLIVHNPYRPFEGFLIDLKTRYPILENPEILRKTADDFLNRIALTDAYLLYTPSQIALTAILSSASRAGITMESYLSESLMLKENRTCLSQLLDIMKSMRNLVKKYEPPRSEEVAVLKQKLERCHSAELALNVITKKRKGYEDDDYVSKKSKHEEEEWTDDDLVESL
T1 sequence (P51948 whole entry partner): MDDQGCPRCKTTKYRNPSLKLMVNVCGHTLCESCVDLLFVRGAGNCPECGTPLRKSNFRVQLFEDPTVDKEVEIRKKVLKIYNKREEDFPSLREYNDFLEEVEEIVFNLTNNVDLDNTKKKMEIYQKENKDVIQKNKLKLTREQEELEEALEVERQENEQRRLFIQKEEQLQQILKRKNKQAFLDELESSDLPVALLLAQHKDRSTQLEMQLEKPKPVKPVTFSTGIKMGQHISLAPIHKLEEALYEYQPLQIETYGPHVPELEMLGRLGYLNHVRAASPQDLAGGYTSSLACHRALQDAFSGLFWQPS

| Ki (CDK7) [nM] | IC50 [1] [nM] | SMILES |
| --- | --- | --- |
| ≤ 50 | ≤ 500 | CCOC[C@@H](NC(=O)N1Cc2c(NC(=O)C3([Si](C)(C)C)CCC3)n[nH]c2C1(C)C)c1ccccc1 [IV-139, (S)—N-(2-Ethoxy-1-phenylethyl)-6,6-dimethyl-3-[1-(trimethylsilyl)cyclobutanecarboxamido]-4,6-dihydropyrrolo[3,4-c]pyrazole-5(1H)-carboxamide] |
| ≤ 50 | ≤ 500 | CC1(C)c2[nH]nc(NC(=O)C3([Si](C)(C)C)CCC3)c2CN1C(=O)O[C@H](CO)c1ccccc1 [IV-2, (S)-2-Hydroxy-1-phenylethyl 6,6-dimethyl-3-[1-(trimethylsilyl)cyclobutanecarboxamido]-4,6-dihydropyrrolo[3,4-c]pyrazole-5(1H)-carboxylate] |
| ≤ 50 | – | C[C@@H](CO)NC(=O)N1Cc2c(NC(=O)C3([Si](C)(C)C)CCC3)n[nH]c2C1(C)C [IV-455, (S)—N-(1-Hydroxypropan-2-yl)-6,6-dimethyl-3-[1-(trimethylsilyl)cyclobutanecarboxamido]-4,6-dihydropyrrolo[3,4-c]pyrazole-5(1H)-carboxamide] |
| ≤ 50 | ≤ 500 | CC1(C)c2[nH]nc(NC(=O)C3([Si](C)(C)C)CCC3)c2CN1C(=O)N[C@H](CCCCO)c1ccccc1 [IV-291, (R)—N-(5-Hydroxy-1-phenylpentyl)-6,6-dimethyl-3-[1-(trimethylsilyl)cyclobutanecarboxamido]-4,6-dihydropyrrolo[3,4-c]pyrazole-5(1H)-carboxamide] |
| ≤ 50 | ≤ 500 | COC(C(=O)N1Cc2c(NC(=O)C3([Si](C)(C)C)CCC3)n[nH]c2C1(C)C)c1cccc(F)c1 (stereo not drawn) [IV-1404, N-{5-[2-(3-Fluorophenyl)-2-methoxyacetyl]-6,6-dimethyl-1,4,5,6-tetrahydropyrrolo[3,4-c]pyrazol-3-yl}-1-(trimethylsilyl)cyclobutanecarboxamide] |
| ≤ 50 | ≤ 500 | CC1(C)c2[nH]nc(NC(=O)C3([Si](C)(C)C)CCC3)c2CN1C(=O)NCCO [IV-438, N-(2-Hydroxyethyl)-6,6-dimethyl-3-[1-(trimethylsilyl)cyclobutanecarboxamido]-4,6-dihydropyrrolo[3,4-c]pyrazole-5(1H)-carboxamide] |
| ≤ 50 | ≤ 500 | CC(C)[C@@H](CO)NC(=O)N1Cc2c(NC(=O)C3([Si](C)(C)C)CCC3)n[nH]c2C1(C)C [IV-475, (S)—N-(1-Hydroxy-3-methylbutan-2-yl)-6,6-dimethyl-3-[1-(trimethylsilyl)cyclobutanecarboxamido]-4,6-dihydropyrrolo[3,4-c]pyrazole-5(1H)-carboxamide] |
| ≤ 50 | ≤ 500 | CC(C)(O)C[C@@H](NC(=O)N1Cc2c(NC(=O)C3([Si](C)(C)C)CCC3)n[nH]c2C1(C)C)c1cccc(F)c1 [IV-911, (R)—N-[1-(3-Fluorophenyl)-3-hydroxy-3-methylbutyl]-6,6-dimethyl-3-[1-(trimethylsilyl)cyclobutanecarboxamido]-4,6-dihydropyrrolo[3,4-c]pyrazole-5(1H)-carboxamide] |
| ≤ 50 | ≤ 500 | CC[Si](C)(C)C1(C(=O)Nc2n[nH]c3c2CN(C(=O)N[C@H](CO)c2ccccc2)C3(C)C)CCC1 [IV-117, (S)-3-[1-(Ethyldimethylsilyl)cyclobutanecarboxamido]-N-(2-hydroxy-1-phenylethyl)-6,6-dimethyl-4,6-dihydropyrrolo[3,4-c]pyrazole-5(1H)-carboxamide] |
| ≤ 50 | ≤ 500 | CC(C)(O)C[C@@H](NC(=O)N1Cc2c(NC(=O)C3([Si](C)(C)C)CCC3)n[nH]c2C1(C)C)c1ccc(F)cc1 [IV-939, (R)—N-[1-(4-Fluorophenyl)-3-hydroxy-3-methylbutyl]-6,6-dimethyl-3-[1-(trimethylsilyl)cyclobutanecarboxamido]-4,6-dihydropyrrolo[3,4-c]pyrazole-5(1H)-carboxamide] |
| ≤ 50 | ≤ 500 | CO[C@@H](C(=O)N1Cc2c(NC(=O)C3([Si](C)(C)C)CCC3)n[nH]c2C1(C)C)c1ccccc1F [IV-1383, (R)—N-{5-[2-(2-Fluorophenyl)-2-methoxyacetyl]-6,6-dimethyl-1,4,5,6-tetrahydropyrrolo[3,4-c]pyrazol-3-yl}-1-(trimethylsilyl)cyclobutanecarboxamide] |
| ≤ 50 | ≤ 500 | CC(C)(CO)C(NC(=O)N1Cc2c(NC(=O)C3([Si](C)(C)C)CCC3)n[nH]c2C1(C)C)c1ccccc1 (single isomer, unassigned; (-)) [IV-673, (−)-N-(3-Hydroxy-2,2-dimethyl-1-phenylpropyl)-6,6-dimethyl-3-[1-(trimethylsilyl)cyclobutanecarboxamido]-4,6-dihydropyrrolo[3,4-c]pyrazole-5(1H)-carboxamide] |
| ≤ 50 | ≤ 500 | CC(C)(O)C[C@@H](NC(=O)N1Cc2c(NC(=O)C3([Si](C)(C)C)CCC3)n[nH]c2C1(C)C)c1ccccc1 [IV-299, (R)—N-(3-Hydroxy-3-methyl-1-phenylbutyl)-6,6-dimethyl-3-[1-(trimethylsilyl)cyclobutanecarboxamido]-4,6-dihydropyrrolo[3,4-c]pyrazole-5(1H)-carboxamide] |
| ≤ 50 | ≤ 500 | CC1(C)c2[nH]nc(NC(=O)C3([Si](C)(C)C)CCC3)c2CN1C(=O)[C@H](OC(F)F)c1ccccc1 [IV-1180, (R)—N-{5-[2-(Difluoromethoxy)-2-phenylacetyl]-6,6-dimethyl-1,4,5,6-tetrahydropyrrolo[3,4-c]pyrazol-3-yl}-1-(trimethylsilyl)cyclobutanecarboxamide] |
| – | ≤ 500 | CC(C)(CO)C(NC(=O)N1Cc2c(NC(=O)C3([Si](C)(C)C)CCC3)n[nH]c2C1(C)C)c1cccc(F)c1 (stereo not drawn) [IV-918, N-[1-(3-Fluorophenyl)-3-hydroxy-2,2-dimethylpropyl]-6,6-dimethyl-3-[1-(trimethylsilyl)cyclobutanecarboxamido]-4,6-dihydropyrrolo[3,4-c]pyrazole-5(1H)-carboxamide] |
| ≤ 50 | ≤ 500 | CCO[C@@H](C(=O)N1Cc2c(NC(=O)C3([Si](C)(C)C)CCC3)n[nH]c2C1(C)C)c1ccccc1 [IV-1188, (R)—N-[5-(2-Ethoxy-2-phenylacetyl)-6,6-dimethyl-1,4,5,6-tetrahydropyrrolo[3,4-c]pyrazol-3-yl]-1-(trimethylsilyl)cyclobutanecarboxamide] |
| ≤ 50 | ≤ 500 | CC1(C)c2[nH]nc(NC(=O)C3([Si](C)(C)C)CCC3)c2CN1C(=O)N[C@H](CCCO)c1ccccc1 [IV-283, (R)—N-(4-Hydroxy-1-phenylbutyl)-6,6-dimethyl-3-[1-(trimethylsilyl)cyclobutanecarboxamido]-4,6-dihydropyrrolo[3,4-c]pyrazole-5(1H)-carboxamide] |
| ≤ 50 | ≤ 500 | CC(C)O[C@@H](C(=O)N1Cc2c(NC(=O)C3([Si](C)(C)C)CCC3)n[nH]c2C1(C)C)c1ccccc1 [IV-1204, (R)—N-[5-(2-Isopropoxy-2-phenylacetyl)-6,6-dimethyl-1,4,5,6-tetrahydropyrrolo[3,4-c]pyrazol-3-yl]-1-(trimethylsilyl)cyclobutanecarboxamide] |
| ≤ 50 | ≤ 500 | CC1(C)c2[nH]nc(NC(=O)C3([Si](C)(C)C)CCC3)c2CN1C(=O)N[C@H](CCO)c1ccccc1 [IV-227, (R)—N-(3-Hydroxy-1-phenylpropyl)-6,6-dimethyl-3-[1-(trimethylsilyl)cyclobutanecarboxamido]-4,6-dihydropyrrolo[3,4-c]pyrazole-5(1H)-carboxamide] |
| – | ≤ 500 | CC(C)(CO)C(NC(=O)N1Cc2c(NC(=O)C3([Si](C)(C)C)CCC3)n[nH]c2C1(C)C)c1ccccc1 (racemic) [IV-354, N-(3-Hydroxy-2,2-dimethyl-1-phenylpropyl)-6,6-dimethyl-3-[1-(trimethylsilyl)cyclobutanecarboxamido]-4,6-dihydropyrrolo[3,4-c]pyrazole-5(1H)-carboxamide] |

| SMILES | Ki (CDK7) [nM] | IC50 [1] [nM] |
| --- | --- | --- |
| CC(C)(CO)C(NC(=O)N1Cc2c(NC(=O)C3([Si](C)(C)C)CCC3)n[nH]c2C1(C)C)c1ccc(F)cc1 (stereo not drawn) [IV-946, N-[1-(4-Fluorophenyl)-3-hydroxy-2,2-dimethylpropyl]-6,6-dimethyl-3-[1-(trimethylsilyl)cyclobutanecarboxamido]-4,6-dihydropyrrolo[3,4-c]pyrazole-5(1H)-carboxamide] | – | ≤ 500 |
| CC1(C)c2[nH]nc(NC(=O)C3([Si](C)(C)C)CCC3)c2CN1C(=O)N[C@H](CC1(O)CC1)c1ccccc1 [IV-743, (R)—N-[2-(1-Hydroxycyclopropyl)-1-phenylethyl]-6,6-dimethyl-3-[1-(trimethylsilyl)cyclobutanecarboxamido]-4,6-dihydropyrrolo[3,4-c]pyrazole-5(1H)-carboxamide] | ≤ 50 | ≤ 500 |
| CC1(C)c2[nH]nc(NC(=O)C3([Si](C)(C)C)CCC3)c2CN1C(=O)NC(c1ccccc1)C1(CO)CCC1 (stereo not drawn) [IV-718, N-{[1-(Hydroxymethyl)cyclobutyl](phenyl)methyl}-6,6-dimethyl-3-[1-(trimethylsilyl)cyclobutanecarboxamido]-4,6-dihydropyrrolo[3,4-c]pyrazole-5(1H)-carboxamide] | – | ≤ 500 |
| CC1(C)c2[nH]nc(NC(=O)C3([Si](C)(C)C)CCC3)c2CN1C(=O)[C@H](OC(F)(F)F)c1ccccc1 [IV-1184, (R)—N-{6,6-Dimethyl-5-[2-phenyl-2-(trifluoromethoxy)acetyl]-1,4,5,6-tetrahydropyrrolo[3,4-c]pyrazol-3-yl}-1-(trimethylsilyl)cyclobutanecarboxamide] | – | ≤ 500 |
